Experimental data reported in ChEMBL document CHEMBL1147661, “The first potent inhibitor of mammalian group X secreted phospholipase A2: elucidation of sites for enhanced binding” (J Med Chem, 2006).
pIC50: −log10 of the molar value.

How the values were obtained:
Phospholipase A2 [1] = target: Phospholipase A2 (Homo sapiens, UniProt P04054); assay: Inhibition of human recombinant sPLA2 G1B
Phospholipase A2 [2] = target: Phospholipase A2 (Mus musculus, UniProt Q9Z0Y2); assay: Inhibition of mouse recombinant sPLA2 G1B
Chain of Phospholipase A2 (Mus musculus, UniProt Q9Z0Y2) (Q9Z0Y2 whole entry): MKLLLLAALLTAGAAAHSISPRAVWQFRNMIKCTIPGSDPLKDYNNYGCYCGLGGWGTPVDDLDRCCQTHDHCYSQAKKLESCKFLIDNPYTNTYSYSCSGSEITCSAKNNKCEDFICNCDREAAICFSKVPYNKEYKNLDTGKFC

[3] = target: T1, Phospholipase A2, membrane associated (Homo sapiens, UniProt P14555); assay: Inhibition of human recombinant sPLA2 G2A
T1 sequence (P14555 whole entry): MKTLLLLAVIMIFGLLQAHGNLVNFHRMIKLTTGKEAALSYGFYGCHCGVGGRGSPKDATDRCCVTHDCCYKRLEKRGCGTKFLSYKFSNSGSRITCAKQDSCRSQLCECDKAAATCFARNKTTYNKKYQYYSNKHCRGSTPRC

[4] = target: T2, Group IIE secretory phospholipase A2 (Homo sapiens, UniProt Q9NZK7); assay: Inhibition of human recombinant sPLA2 G2E
T2 sequence (Q9NZK7 whole entry): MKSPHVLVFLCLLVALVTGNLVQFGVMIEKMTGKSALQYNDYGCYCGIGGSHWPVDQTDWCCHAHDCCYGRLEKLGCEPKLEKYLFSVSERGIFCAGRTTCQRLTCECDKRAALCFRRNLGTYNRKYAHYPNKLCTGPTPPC

[5] = target: T3, Group IIE secretory phospholipase A2 (Mus musculus, UniProt Q9QUL3); assay: Inhibition of mouse recombinant sPLA2 G2E
T3 sequence (Q9QUL3 whole entry): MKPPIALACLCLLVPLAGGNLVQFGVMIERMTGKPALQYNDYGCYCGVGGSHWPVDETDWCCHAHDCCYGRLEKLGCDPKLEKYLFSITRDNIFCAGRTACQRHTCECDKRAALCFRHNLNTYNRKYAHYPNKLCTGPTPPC

[6] = target: T4, Group 10 secretory phospholipase A2 (Homo sapiens, UniProt O15496); assay: Inhibition of human recombinant sPLA2 G10
T4 sequence (O15496 whole entry): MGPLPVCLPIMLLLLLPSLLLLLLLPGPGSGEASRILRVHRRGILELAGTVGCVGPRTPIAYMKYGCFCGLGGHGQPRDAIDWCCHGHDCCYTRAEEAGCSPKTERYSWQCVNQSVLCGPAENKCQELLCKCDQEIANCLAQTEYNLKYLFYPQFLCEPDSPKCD

[7] = target: T5, Group 10 secretory phospholipase A2 (Mus musculus, UniProt Q9QXX3); assay: Inhibition of mouse recombinant sPLA2 G10
T5 sequence (Q9QXX3 whole entry): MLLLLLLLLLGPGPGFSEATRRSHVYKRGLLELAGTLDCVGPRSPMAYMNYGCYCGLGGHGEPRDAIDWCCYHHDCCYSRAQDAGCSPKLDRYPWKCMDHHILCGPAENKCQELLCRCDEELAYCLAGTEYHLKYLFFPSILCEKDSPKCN

[8] = target: T6, Phospholipase A2, membrane associated (Mus musculus, UniProt P31482); assay: Inhibition of mouse recombinant sPLA2 G2A
T6 sequence (P31482 whole entry): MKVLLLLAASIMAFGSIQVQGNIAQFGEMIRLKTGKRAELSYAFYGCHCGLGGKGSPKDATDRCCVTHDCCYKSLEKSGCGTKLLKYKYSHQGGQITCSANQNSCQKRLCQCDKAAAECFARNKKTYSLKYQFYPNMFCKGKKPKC

Phospholipase A2 group V [9] = target: T7, Phospholipase A2 group V (Homo sapiens, UniProt P39877); assay: Inhibition of human recombinant sPLA2 G5
T7 sequence (P39877 whole entry): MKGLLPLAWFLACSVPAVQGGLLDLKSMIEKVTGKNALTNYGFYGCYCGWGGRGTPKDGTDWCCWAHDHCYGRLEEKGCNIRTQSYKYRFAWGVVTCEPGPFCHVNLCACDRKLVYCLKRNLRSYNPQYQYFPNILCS

Phospholipase A2 group V [10] = target: T8, Phospholipase A2 group V (Mus musculus, UniProt P97391); assay: Inhibition of mouse recombinant sPLA2 G5
T8 sequence (P97391 whole entry): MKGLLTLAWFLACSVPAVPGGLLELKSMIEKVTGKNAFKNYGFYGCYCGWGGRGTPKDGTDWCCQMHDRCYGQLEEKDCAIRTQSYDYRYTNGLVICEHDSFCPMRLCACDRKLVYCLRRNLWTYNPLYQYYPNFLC

Chain of Phospholipase A2 (Homo sapiens, UniProt P04054) (P04054 whole entry): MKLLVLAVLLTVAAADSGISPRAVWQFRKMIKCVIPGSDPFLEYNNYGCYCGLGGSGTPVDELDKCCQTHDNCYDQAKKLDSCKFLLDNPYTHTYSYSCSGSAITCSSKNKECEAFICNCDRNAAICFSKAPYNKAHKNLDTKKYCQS

Compound	pIC50 (Phospholipase A2 [1])	pIC50 (Phospholipase A2 [2])	pIC50 [3]	pIC50 [4]	pIC50 [5]	pIC50 [6]	pIC50 [7]	pIC50 [8]	pIC50 (Phospholipase A2 group V [9])	pIC50 (Phospholipase A2 group V [10])
CCc1c(C(=O)C(N)=O)c2c(OCC(=O)O)cc(C)cc2n1Cc1ccccc1	6.10	6.70	6.90	7.30	7.12	–	–	–	–	–
Cc1cc(OCC(=O)O)c2c(C(=O)C(N)=O)c(C)n(Cc3ccccc3)c2c1	5.70	5.70	6.52	6.90	6.40	5.66	5.60	6.90	6.10	6.07
Cc1c(C(=O)C(N)=O)c2c(OCC(=O)O)cccc2n1Cc1ccccc1	5.60	5.66	6.56	7.12	6.40	5.70	5.60	6.90	6.10	6.00
CCc1c(C(=O)C(N)=O)c2c(OCC(=O)O)cccc2n1Cc1ccccc1 [VARESPLADIB]	6.12	6.85	–	7.30	7.12	–	7.12	7.15	6.30	6.12
